Test results reported in patent US4206224A, “Treatment of infections” (Beecham Group Limited, priority 1976, dated 1980).
In brackets after ≈: the same amount, converted by molar mass. Entries after “also recorded” stand apart in the source; their conditions may differ. Structures can show the parent of a compound that is named as a salt.

Columns and labels:
M. suipneumoniae (Laber) = test: Antimycoplasmal MIC, metabolic-inhibition test, M. suipneumoniae (Laber); assay type: cell-based; conditions: Mesomycoplasma hyopneumoniae, 168 h, dilutions 250-0.5 μg/ml, 37° C., seven days, read-out: MIC (in vitro antimycoplasmal activity)
M. pulmonis 'JB' [1] = test: Antimycoplasmal MIC, metabolic-inhibition test, M. pulmonis 'JB'; assay type: cell-based; conditions: Mycoplasmopsis pulmonis, 168 h, dilutions 250-0.5 μg/ml, 37° C., seven days, read-out: MIC (in vitro antimycoplasmal activity)
[2] = system: mycoplasmas from human and veterinary sources; test: Antimycoplasmal activity in vitro, overall; assay type: cell-based
Protocol: 1. The minimal inhibitory concentrations (MIC) of pseudomonic acid and methyl pseudomonate were determined in Microtitre plates, by a modification of the metabolic-inhibition test (Taylor-Robinson, 1967). The compounds were serially diluted in sterile de-ionised water to give a range of concentrations from 250-0.5 μg/ml. Mycoplasma broth containing 1% (w/v) of glucose and 0.005% (w/v) of phenon red, was added at a strength to compensate for its dilution by the aqueous drug solution. Approximately 10^4 colony forming units of mycoplasma were added to each concentration of drug. Drug-free infected, noninfected and pH control wells were included on each plate. Plates were sealed with cellotape and incubated at 37° C. for seven days. The MIC was the lowest concentration of compound that prevented a colour change in the mycoplasma broth, caused by the metabolism of glucose by the mycoplasmas.

M. fermentans MW KL 4 = test: Antimycoplasmal MIC, metabolic-inhibition test, M. fermentans MW KL 4; assay type: cell-based; conditions: Mycoplasmopsis fermentans, MWKL4, 168 h, dilutions 250-0.5 μg/ml, 37° C., seven days, read-out: MIC (in vitro antimycoplasmal activity)
M. gallisepticum S6 = test: Antimycoplasmal MIC, metabolic-inhibition test, M. gallisepticum S6; assay type: cell-based; conditions: Mycoplasmoides gallisepticum, 168 h, dilutions 250-0.5 μg/ml, 37° C., seven days, read-out: MIC (in vitro antimycoplasmal activity)
M. dispar H225 = test: Antimycoplasmal MIC, metabolic-inhibition test, M. dispar H225; assay type: cell-based; conditions: 168 h, dilutions 250-0.5 μg/ml, 37° C., seven days, read-out: MIC (in vitro antimycoplasmal activity)
M. bovis 25025 = test: microbe, parasite or virus in culture; assay type: cell-based; conditions: 25025, 168 h, read-out: MIC (in vitro antimycoplasmal activity)
M. pneumoniae 427 a = test: Antimycoplasmal MIC, metabolic-inhibition test, M. pneumoniae 427 a; assay type: cell-based; conditions: Mycoplasmoides pneumoniae, 168 h, dilutions 250-0.5 μg/ml, 37° C., seven days, read-out: MIC (in vitro antimycoplasmal activity)
M. synoviae 25204 = test: Antimycoplasmal MIC, metabolic-inhibition test, M. synoviae 25204; assay type: cell-based; conditions: Mycoplasmopsis synoviae, 168 h, dilutions 250-0.5 μg/ml, 37° C., seven days, read-out: MIC (in vitro antimycoplasmal activity)
Neisseria meningitidis = test: Antibacterial spectrum (MIC), Neisseria meningitidis; assay type: cell-based
Neisseria gonorrhoeae = test: Antibacterial spectrum (MIC), Neisseria gonorrhoeae; assay type: cell-based
[3] = Blood and urinary excretion levels, rat; assay type: in vivo; conditions: 100 mg/kg; for Cmax: blood, read-out: Peak Level (blood); for dose excreted: urine, read-out: Urinary Recovery
Description: (§1) The results of administering pseudomonic acid to four different animal species are shown in Table 2 in terms of peak blood levels and urinary recovery.

M. pulmonis 'JB' [4] = test: M. pulmonis-induced arthritis of mice; conditions: for Number of mice with arthritis/total number mice: 200 mg/kg × 5 s.c.; for prevented the development of arthritis: 200 mg/kg s.c. daily, five consecutive days
Toxicity (LD50), mouse = assay type: in vivo; conditions: for LD50: in vivo
Streptococcus pneumoniae = test: Antibacterial spectrum (MIC), Streptococcus pneumoniae; assay type: cell-based
Streptococcus faecalis = test: Antibacterial spectrum (MIC), Streptococcus faecalis; assay type: cell-based; conditions: Enterococcus faecalis
M. synoviae ATCC 25204 = test: M. synoviae-induced airsacculitis of chicken; assay type: in vivo, chicken (white leghorn chicks) infected with M. synoviae
Protocol: 3. M. synoviae-induced airsacculitis of chicken 0.5 ml volumes of a broth culture containing about 10^8 CFU of M. synoviae ATCC No. 25204 were injected into the left abdominal air sacs of groups of five, one week old, specific pathogen free (SPF) white leghorn chicks. […] Seven days after infection the chicks were autopsied and the air sacs were examined macroscopically for mycoplasmal lesions and microbiologically for the presence of M. synoviae.

Streptococcus pyogenes = test: Antibacterial spectrum (MIC), Streptococcus pyogenes; assay type: cell-based
streptococci = test: Antibacterial spectrum, streptococci; assay type: cell-based; conditions: most streptococci
Pasteurella multocida = test: Antibacterial activity, Pasteurella multocida; assay type: cell-based
staphylococci = test: Antibacterial spectrum, staphylococci; assay type: cell-based
[5] = system: Bordetella bronchiseptica; test: Antibacterial activity, Bordetella bronchiseptica; assay type: cell-based
Staphylococcus aureus = test: Antibacterial spectrum (MIC), Staphylococcus aureus; assay type: cell-based
[6] = Blood and urinary excretion levels, squirrel monkey; assay type: in vivo; conditions: 100 mg/kg; for Cmax: blood, read-out: Peak Level (blood); for dose excreted: urine, read-out: Urinary Recovery
Description: as §1

Gram-negative bacilli = test: Antibacterial spectrum (MIC), Gram-negative bacilli
Toxicity (LD50), rat = assay type: in vivo; conditions: for LD50: in vivo
Mycoplasma species = test: Antibacterial spectrum (MIC), Mycoplasma species
[7] = system: Staphylococcus epidermidis; test: Antibacterial spectrum (MIC), Staphylococcus epidermidis; assay type: cell-based
Haemophilus influenzae = test: Antibacterial spectrum (MIC), Haemophilus influenzae; assay type: cell-based
[8] = Blood and urinary excretion levels, mouse; assay type: in vivo; conditions: 50 mg/kg; for Cmax: blood, read-out: Peak Level (blood); for dose excreted: urine, read-out: Urinary Recovery
Description: as §1

[9] = Blood and urinary excretion levels, dog; assay type: in vivo; conditions: 100 mg/kg; for Cmax: blood, read-out: Peak Level (blood); for dose excreted: urine, read-out: Urinary Recovery
Description: as §1

## COC(=O)CCCCCCCCOC(=O)/C=C(\C)C[C@@H]1OC[C@H](C[C@@H]2O[C@H]2[C@@H](C)[C@H](C)O)[C@@H](O)[C@H]1O [methyl pseudomonate]
M. suipneumoniae (Laber)
  MIC: 7.8 µg/mL (≈ 15.2 µM)
M. pulmonis 'JB' [1]
  MIC: < 0.5 µg/mL
[2]
  antimycoplasmal activity in vitro (in words): good antimycoplasmal activity in vitro
M. fermentans MW KL 4
  MIC: < 0.5 µg/mL
M. gallisepticum S6
  MIC: 15.6 µg/mL (≈ 30.3 µM)
M. dispar H225
  MIC: < 0.5 µg/mL
M. bovis 25025
  MIC: < 0.5 µg/mL
M. pneumoniae 427 a
  MIC: 7.8 µg/mL (≈ 15.2 µM)
M. synoviae 25204
  MIC: < 0.5 µg/mL

## C/C(=C\C(=O)OCCCCCCCCC(=O)O)C[C@@H]1OC[C@H](C[C@@H]2O[C@H]2[C@@H](C)[C@H](C)O)[C@@H](O)[C@H]1O [Pseudomonic acid (Na salt)]
M. suipneumoniae (Laber)
  MIC: 1.9 to 3.9 µg/mL
M. pulmonis 'JB' [1]
  MIC: < 0.5 µg/mL
[2]
  antimycoplasmal activity in vitro (in words): good antimycoplasmal activity in vitro
M. fermentans MW KL 4
  MIC: < 0.5 µg/mL
M. gallisepticum S6
  MIC: 7.8 µg/mL
M. dispar H225
  MIC: < 0.5 µg/mL
M. bovis 25025
  MIC: < 0.5 µg/mL
M. pneumoniae 427 a
  MIC: < 0.5 µg/mL
M. synoviae 25204
  MIC: < 0.5 µg/mL

## C/C(=C\C(=O)OCCCCCCCCC(=O)O)C[C@@H]1OC[C@H](C[C@@H]2O[C@H]2[C@@H](C)[C@H](C)O)[C@@H](O)[C@H]1O [Pseudomonic acid]
Neisseria meningitidis
  MIC: 0.02 µg/mL (≈ 0.0399 µM)
Neisseria gonorrhoeae; Neisseria gonorrhoeae
  MIC: 0.01 µg/mL (≈ 0.02 µM)
Neisseria gonorrhoeae; Neisseria gonorrhoeae (gonococci), including strains resistant to other antibiotics
  antibacterial activity / susceptibility (in words): very susceptible; also recorded: particularly high activity
[3]; im
  Cmax: 15800 ng/mL
  dose excreted: < 1%
[3]; iv
  Cmax: 66700 ng/mL
  dose excreted: < 1%
M. pulmonis 'JB' [4]; Expt 1, day 3 after infection
  Number of mice with arthritis/total number mice: 0/6
M. pulmonis 'JB' [4]; Expt 1, day 7 after infection
  Number of mice with arthritis/total number mice: 1/5
M. pulmonis 'JB' [4]; Expt 1, day 10 after infection
  Number of mice with arthritis/total number mice: 1/5
M. pulmonis 'JB' [4]; Expt 1, day 14 after infection
  Number of mice with arthritis/total number mice: 1/5
M. pulmonis 'JB' [4]; Expt 2, day 3 after infection
  Number of mice with arthritis/total number mice: 0/8
M. pulmonis 'JB' [4]; Expt 2, day 8 after infection
  Number of mice with arthritis/total number mice: 2/8
M. pulmonis 'JB' [4]; Expt 2, day 10 after infection
  Number of mice with arthritis/total number mice: 2/8
M. pulmonis 'JB' [4]; Expt 2, day 14 after infection
  Number of mice with arthritis/total number mice: 4/8
M. pulmonis 'JB' [4]; first experiment
  prevented the development of arthritis: four out of five mice
M. pulmonis 'JB' [4]; mice
  activity in vivo in experimentally induced mycoplasmal infection (in words): active in vivo
M. pulmonis 'JB' [4]; second experiment
  prevented the development of arthritis: four out of eight mice
Toxicity (LD50), mouse; iv
  LD50: 1640 to 2050 mg/kg
Toxicity (LD50), mouse; p.c. (so in the source)
  LD50: 5000 mg/kg
Toxicity (LD50), mouse; sc
  LD50: 4000 to 5000 mg/kg
Toxicity (LD50), mouse; three routes
  toxicity (in words): low degree of toxicity
Streptococcus pneumoniae
  MIC: 0.12 µg/mL (≈ 0.24 µM)
Streptococcus faecalis
  MIC: 50 µg/mL (≈ 99.9 µM)
M. synoviae ATCC 25204; 200 mg/kg i.m. twice per day
  prevented the development of airsac lesions: four out of five birds
  re-isolation of M. synoviae from airsacs (in words): not re-isolated from the airsacs of any
M. synoviae ATCC 25204; 200 mg/kg × 7 i.m., autopsy seven days after infection
  Number birds protected/total: 4/5
M. synoviae ATCC 25204; 200 mg/kg × 7 i.m., seven days after infection
  Number of birds from which M. synoviae was re-isolated: 0
M. synoviae ATCC 25204; chicken
  activity in vivo in experimentally induced mycoplasmal infection (in words): active in vivo
Streptococcus pyogenes
  MIC: 0.25 µg/mL (≈ 0.499 µM)
streptococci
  antibacterial activity (in words): good activity
Pasteurella multocida
  antibacterial activity (in words): has activity
staphylococci
  antibacterial activity (in words): good activity
[5]
  antibacterial activity (in words): has activity
Staphylococcus aureus
  MIC: 0.25 µg/mL (≈ 0.499 µM)
[6]; im
  Cmax: 40000 ng/mL
  dose excreted: 2%
[6]; po
  Cmax: 26800 ng/mL
  dose excreted: 1.5%
Gram-negative bacilli
  antibacterial activity (in words): relatively inactive
Toxicity (LD50), rat; iv
  LD50: 1310 to 2560 mg/kg
Toxicity (LD50), rat; po
  LD50: 5000 mg/kg
Toxicity (LD50), rat; sc
  LD50: 5000 mg/kg
Toxicity (LD50), rat; three routes
  toxicity (in words): low degree of toxicity
Mycoplasma species; Mycoplasma sp, b37: most mycoplasma species
  antimycoplasmal activity / sensitivity (in words): very sensitive; also recorded: particularly high activity
Mycoplasma species; Mycoplasma species
  MIC: <0.01 to 25 µg/mL
[7]
  MIC: 0.25 µg/mL (≈ 0.499 µM)
Haemophilus influenzae
  MIC: 0.12 µg/mL (≈ 0.24 µM)
Haemophilus influenzae; including strains resistant to other antibiotics
  antibacterial activity / susceptibility (in words): very susceptible; also recorded: particularly high activity
[8]; po
  Cmax: < 1000 ng/mL
  dose excreted: < 1%
[8]; sc
  Cmax: 7200 ng/mL
  dose excreted: < 1%
[9]; im
  Cmax: 25300 ng/mL
  dose excreted: 1%
[9]; po
  Cmax: 3600 ng/mL
  dose excreted: < 1%
